Laboratory results published in ChEMBL document CHEMBL2203234, “Optimisation of imidazole compounds as selective TAAR1 agonists: discovery of RO5073012” (Bioorg Med Chem Lett, 2012).

How the values were obtained:
[1] = Inhibition of L-type Ca2+ channel DHP site at 10 uM by CEREP assay
[2] = molecular target: Muscarinic acetylcholine receptor M2 (Homo sapiens) (UniProt P08172); experiment: Inhibition of human M2 receptor at 10 uM by CEREP assay
[3] = molecular target: Cannabinoid receptor 2 (Homo sapiens) (UniProt P34972); experiment: Inhibition of human CB2 receptor at 10 uM by CEREP assay
[4] = molecular target: Histamine H3 receptor (Homo sapiens) (UniProt Q9Y5N1); experiment: Inhibition of human H3 receptor at 10 uM by CEREP assay
[5] = molecular target: Estrogen receptor (Homo sapiens) (UniProt P03372); experiment: Inhibition of human estrogen receptor at 10 uM by CEREP assay
[6] = Inhibition of L-type Ca2+ channel diltiazem site at 10 uM by CEREP assay
[7] = molecular target: T1, Trace amine-associated receptor 1 (Homo sapiens, UniProt Q96RJ0); experiment: Displacement of (S)-4-(2,4-difluorophenyl-3-tritio) -4,5-dihydro-2-oxazolamine from human TAAR1 receptor expressed in HEK293 cells after 90 mins by beta counting analysis; assay type: cell-based
T1 sequence (Q96RJ0 whole entry): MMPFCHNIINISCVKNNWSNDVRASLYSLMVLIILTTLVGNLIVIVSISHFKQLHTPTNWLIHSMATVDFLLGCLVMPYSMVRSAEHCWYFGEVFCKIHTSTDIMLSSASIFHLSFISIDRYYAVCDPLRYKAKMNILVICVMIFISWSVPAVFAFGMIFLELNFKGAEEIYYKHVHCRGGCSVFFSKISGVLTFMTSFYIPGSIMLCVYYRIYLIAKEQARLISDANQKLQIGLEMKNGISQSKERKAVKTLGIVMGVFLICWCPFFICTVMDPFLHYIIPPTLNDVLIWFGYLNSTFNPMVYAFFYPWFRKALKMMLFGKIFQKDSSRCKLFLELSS

[8] = molecular target: Type-2 angiotensin II receptor (Homo sapiens) (UniProt P50052); experiment: Inhibition of human AT2 receptor at 10 uM by CEREP assay
[9] = molecular target: Motilin receptor (Homo sapiens) (UniProt O43193); experiment: Inhibition of human Motilin receptor at 10 uM by CEREP assay
[10] = molecular target: 4-aminobutyrate aminotransferase, mitochondrial (Homo sapiens) (UniProt P80404); experiment: Inhibition of GABA transaminase at 10 uM by CEREP assay
[11] = molecular target: Sodium-dependent noradrenaline transporter (Homo sapiens) (UniProt P23975); experiment: Inhibition of human NE transporter at 10 uM by CEREP assay
[12] = molecular target: Androgen receptor (Homo sapiens) (UniProt P10275); experiment: Inhibition of human androgen receptor at 10 uM by CEREP assay
[13] = molecular target: Mu-type opioid receptor (Homo sapiens) (UniProt P35372); experiment: Inhibition of human MOP receptor at 10 uM by CEREP assay
[14] = molecular target: Phosphodiesterase 4 (Homo sapiens) (UniProt P27815+Q08499+Q07343+Q08493); experiment: Inhibition of human PDE4 at 10 uM by CEREP assay; assay type: protein assay
[15] = Half life in mouse at 7.1 mg/kg, po; assay type: ADME, organism-based; parameters: dose 7.1 mg/kg, route oral; conditions: in vivo
[16] = molecular target: 5-hydroxytryptamine receptor 3A (Homo sapiens) (UniProt P46098); experiment: Inhibition of human 5-HT3 receptor at 10 uM by CEREP assay
[17] = molecular target: Melanocortin receptor 4 (Homo sapiens) (UniProt P32245); experiment: Inhibition of human MC4 receptor at 10 uM by CEREP assay
[18] = Oral bioavailability in mouse at 7.1 mg/kg; assay type: ADME, organism-based; conditions: in vivo
[19] = molecular target: 5-hydroxytryptamine receptor 1A (Homo sapiens, UniProt P08908); experiment: Inhibition of human 5-HT1A receptor by CEREP assay
[20] = molecular target: Muscarinic acetylcholine receptor M4 (Homo sapiens) (UniProt P08173); experiment: Inhibition of human M4 receptor at 10 uM by CEREP assay
[21] = Inhibition of human I1 receptor by CEREP assay
[22] = molecular target: Cysteinyl leukotriene receptor 1 (Homo sapiens) (UniProt Q9Y271); experiment: Inhibition of human LTD4 receptor at 10 uM by CEREP assay
[23] = molecular target: Substance-P receptor (Homo sapiens) (UniProt P25103); experiment: Inhibition of human Nk1 receptor at 10 uM by CEREP assay
[24] = Inhibition of PDE1 at 10 uM by CEREP assay
[25] = molecular target: Platelet-activating factor receptor (Homo sapiens) (UniProt P25105); experiment: Inhibition of human PAF receptor at 10 uM by CEREP assay
[26] = molecular target: Phenylethanolamine N-methyltransferase (Homo sapiens) (UniProt P11086); experiment: Inhibition of PNMT at 10 uM by CEREP assay
[27] = Inhibition of L-type Ca2+ channel verapamil site at 10 uM by CEREP assay
Homo sapiens [28] = species: Homo sapiens; experiment: Inhibition of human DOP/delta 2 receptor at 10 uM by CEREP assay
CHL = experiment: Selectivity ratio of Ki for human adrenergic alpha2A receptor expressed in CHL cells to Ki for human TAAR1 receptor; assay type: cell-based
[29] = molecular target: Histamine H1 receptor (Homo sapiens) (UniProt P35367); experiment: Inhibition of human H1 receptor at 10 uM by CEREP assay
[30] = molecular target: Leukotriene B4 receptor 1 (Homo sapiens) (UniProt Q15722); experiment: Inhibition of human LTB4 receptor at 10 uM by CEREP assay
[31] = Inhibition of NMDA receptor PCP site at 10 uM by CEREP assay
[32] = molecular target: C5a anaphylatoxin chemotactic receptor 1 (Homo sapiens) (UniProt P21730); experiment: Inhibition of human C5a receptor at 10 uM by CEREP assay
[33] = molecular target: 5-hydroxytryptamine receptor 6 (Homo sapiens) (UniProt P50406); experiment: Inhibition of human 5-HT6 receptor at 10 uM by CEREP assay
[34] = molecular target: Progesterone receptor (Homo sapiens) (UniProt P06401); experiment: Inhibition of human progesterone receptor at 10 uM by CEREP assay
[35] = Half life in rat at 10 mg/kg, po; assay type: ADME, organism-based; parameters: dose 10 mg/kg, route oral; conditions: in vivo
Homo sapiens [36] = species: Homo sapiens; experiment: Inhibition of human I1 receptor at 10 uM by CEREP assay
[37] = molecular target: Gastrin/cholecystokinin type B receptor (Homo sapiens) (UniProt P32239); experiment: Inhibition of human CCKB receptor at 10 uM by CEREP assay
[38] = molecular target: Vasoactive intestinal polypeptide receptor 1 (Homo sapiens) (UniProt P32241); experiment: Inhibition of human VIP1 receptor at 10 uM by CEREP assay
[39] = molecular target: Catechol O-methyltransferase (Homo sapiens) (UniProt P21964); experiment: Inhibition of COMT at 10 uM by CEREP assay
[40] = molecular target: Adenosine receptor A1 (Homo sapiens) (UniProt P30542); experiment: Inhibition of human A1 receptor at 10 uM by CEREP assay
Sequence of Adenosine receptor A1 (Homo sapiens) (P30542 whole entry): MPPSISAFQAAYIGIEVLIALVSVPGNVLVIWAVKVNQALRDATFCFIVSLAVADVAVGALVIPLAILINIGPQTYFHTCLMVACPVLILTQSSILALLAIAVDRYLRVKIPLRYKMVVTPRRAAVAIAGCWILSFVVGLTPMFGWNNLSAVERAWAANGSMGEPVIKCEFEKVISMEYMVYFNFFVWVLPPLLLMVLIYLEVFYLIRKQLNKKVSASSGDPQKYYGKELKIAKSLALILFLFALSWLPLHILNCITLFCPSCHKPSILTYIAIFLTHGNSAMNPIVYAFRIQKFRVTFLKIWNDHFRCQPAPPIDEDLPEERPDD

Sequence of Cannabinoid receptor 2 (Homo sapiens) (P34972 whole entry): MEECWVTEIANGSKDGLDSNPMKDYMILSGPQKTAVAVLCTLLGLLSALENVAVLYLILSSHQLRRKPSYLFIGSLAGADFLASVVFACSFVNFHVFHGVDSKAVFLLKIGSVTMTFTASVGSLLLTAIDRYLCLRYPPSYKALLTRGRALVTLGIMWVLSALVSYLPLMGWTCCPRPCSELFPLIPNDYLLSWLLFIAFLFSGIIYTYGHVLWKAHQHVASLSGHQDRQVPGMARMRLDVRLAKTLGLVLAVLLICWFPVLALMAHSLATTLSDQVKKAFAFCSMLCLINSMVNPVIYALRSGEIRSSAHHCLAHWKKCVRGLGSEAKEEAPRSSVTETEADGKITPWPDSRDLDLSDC
Sequence of Sodium-dependent noradrenaline transporter (Homo sapiens) (P23975 whole entry): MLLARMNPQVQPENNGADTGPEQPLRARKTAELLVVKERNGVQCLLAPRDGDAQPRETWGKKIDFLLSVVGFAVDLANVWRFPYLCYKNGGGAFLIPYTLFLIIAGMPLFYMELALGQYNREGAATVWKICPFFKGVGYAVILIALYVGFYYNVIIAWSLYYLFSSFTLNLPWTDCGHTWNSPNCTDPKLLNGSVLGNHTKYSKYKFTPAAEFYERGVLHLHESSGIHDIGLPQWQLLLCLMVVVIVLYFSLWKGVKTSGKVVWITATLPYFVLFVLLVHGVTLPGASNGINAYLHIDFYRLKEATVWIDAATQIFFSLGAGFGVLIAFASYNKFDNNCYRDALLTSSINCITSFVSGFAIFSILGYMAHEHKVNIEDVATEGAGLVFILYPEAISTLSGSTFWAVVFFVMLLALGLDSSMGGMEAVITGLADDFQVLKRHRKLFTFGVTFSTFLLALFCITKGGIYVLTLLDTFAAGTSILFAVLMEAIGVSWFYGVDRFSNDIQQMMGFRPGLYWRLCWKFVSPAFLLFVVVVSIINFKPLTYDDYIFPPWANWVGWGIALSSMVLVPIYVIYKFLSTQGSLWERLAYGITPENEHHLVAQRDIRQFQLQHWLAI
Sequence of Histamine H1 receptor (Homo sapiens) (P35367 whole entry): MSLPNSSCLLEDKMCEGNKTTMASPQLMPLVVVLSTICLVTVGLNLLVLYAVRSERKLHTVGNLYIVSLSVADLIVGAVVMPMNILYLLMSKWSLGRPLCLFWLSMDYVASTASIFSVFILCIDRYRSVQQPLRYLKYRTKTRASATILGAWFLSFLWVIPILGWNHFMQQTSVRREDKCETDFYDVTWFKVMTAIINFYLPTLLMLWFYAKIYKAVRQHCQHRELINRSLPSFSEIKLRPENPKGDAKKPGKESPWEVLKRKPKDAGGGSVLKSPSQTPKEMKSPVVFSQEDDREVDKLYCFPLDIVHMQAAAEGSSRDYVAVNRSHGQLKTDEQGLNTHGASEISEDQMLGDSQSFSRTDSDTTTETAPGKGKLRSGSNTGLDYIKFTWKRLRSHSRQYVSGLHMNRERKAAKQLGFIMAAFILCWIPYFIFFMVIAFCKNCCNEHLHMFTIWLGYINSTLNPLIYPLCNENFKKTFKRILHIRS
Sequence of Substance-P receptor (Homo sapiens) (P25103 whole entry): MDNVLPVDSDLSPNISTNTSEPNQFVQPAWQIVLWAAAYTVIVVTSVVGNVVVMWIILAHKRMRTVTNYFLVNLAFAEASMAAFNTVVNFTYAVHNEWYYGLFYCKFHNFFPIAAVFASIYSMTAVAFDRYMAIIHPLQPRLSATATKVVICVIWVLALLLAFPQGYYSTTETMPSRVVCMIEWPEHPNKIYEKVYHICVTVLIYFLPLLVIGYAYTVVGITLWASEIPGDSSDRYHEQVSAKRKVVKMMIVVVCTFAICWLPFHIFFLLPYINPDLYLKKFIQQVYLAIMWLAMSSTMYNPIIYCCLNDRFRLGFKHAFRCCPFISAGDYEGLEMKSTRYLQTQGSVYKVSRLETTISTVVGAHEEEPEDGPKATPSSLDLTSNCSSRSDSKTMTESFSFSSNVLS
Sequence of Phenylethanolamine N-methyltransferase (Homo sapiens) (P11086 whole entry): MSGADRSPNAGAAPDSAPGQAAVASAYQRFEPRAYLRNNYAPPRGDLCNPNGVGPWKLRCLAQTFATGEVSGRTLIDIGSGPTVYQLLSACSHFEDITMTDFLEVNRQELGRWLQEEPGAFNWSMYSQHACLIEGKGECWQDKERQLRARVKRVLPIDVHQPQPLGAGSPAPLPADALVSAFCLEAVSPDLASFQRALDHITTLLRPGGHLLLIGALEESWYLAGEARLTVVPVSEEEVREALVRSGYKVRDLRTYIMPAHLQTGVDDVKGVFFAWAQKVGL
Sequence of 5-hydroxytryptamine receptor 6 (Homo sapiens) (P50406 whole entry): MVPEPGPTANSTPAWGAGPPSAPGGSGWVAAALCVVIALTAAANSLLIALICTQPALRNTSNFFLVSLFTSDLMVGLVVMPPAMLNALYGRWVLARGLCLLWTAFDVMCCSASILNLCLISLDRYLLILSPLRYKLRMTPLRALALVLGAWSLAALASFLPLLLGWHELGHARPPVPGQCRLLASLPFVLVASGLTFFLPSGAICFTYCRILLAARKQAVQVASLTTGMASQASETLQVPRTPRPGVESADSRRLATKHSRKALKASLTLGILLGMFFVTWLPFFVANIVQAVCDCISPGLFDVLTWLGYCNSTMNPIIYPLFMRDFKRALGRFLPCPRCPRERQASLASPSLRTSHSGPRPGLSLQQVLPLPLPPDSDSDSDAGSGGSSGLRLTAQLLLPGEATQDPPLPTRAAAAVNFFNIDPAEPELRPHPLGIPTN
Sequence of Muscarinic acetylcholine receptor M4 (Homo sapiens) (P08173 whole entry): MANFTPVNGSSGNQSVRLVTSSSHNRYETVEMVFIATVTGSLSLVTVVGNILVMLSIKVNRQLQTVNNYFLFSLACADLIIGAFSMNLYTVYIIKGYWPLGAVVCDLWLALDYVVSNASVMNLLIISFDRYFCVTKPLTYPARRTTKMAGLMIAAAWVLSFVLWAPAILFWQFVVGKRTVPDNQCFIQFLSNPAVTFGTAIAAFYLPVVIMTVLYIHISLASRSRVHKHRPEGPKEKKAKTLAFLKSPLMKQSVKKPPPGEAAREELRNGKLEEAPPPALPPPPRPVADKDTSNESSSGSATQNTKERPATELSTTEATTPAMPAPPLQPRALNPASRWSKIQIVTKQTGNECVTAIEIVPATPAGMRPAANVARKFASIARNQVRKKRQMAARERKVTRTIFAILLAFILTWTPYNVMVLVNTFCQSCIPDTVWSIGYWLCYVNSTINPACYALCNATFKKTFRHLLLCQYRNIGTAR
Sequence of Platelet-activating factor receptor (Homo sapiens) (P25105 whole entry): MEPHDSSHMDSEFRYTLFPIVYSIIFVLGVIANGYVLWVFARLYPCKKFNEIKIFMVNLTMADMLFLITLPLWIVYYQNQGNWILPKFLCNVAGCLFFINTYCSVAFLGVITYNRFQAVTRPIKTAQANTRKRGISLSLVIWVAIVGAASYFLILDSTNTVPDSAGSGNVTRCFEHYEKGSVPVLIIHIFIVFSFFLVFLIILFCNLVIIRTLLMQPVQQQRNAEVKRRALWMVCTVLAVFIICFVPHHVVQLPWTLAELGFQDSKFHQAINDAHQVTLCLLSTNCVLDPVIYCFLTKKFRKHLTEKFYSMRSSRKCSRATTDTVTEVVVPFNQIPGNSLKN
Sequence of 5-hydroxytryptamine receptor 3A (Homo sapiens) (P46098 whole entry): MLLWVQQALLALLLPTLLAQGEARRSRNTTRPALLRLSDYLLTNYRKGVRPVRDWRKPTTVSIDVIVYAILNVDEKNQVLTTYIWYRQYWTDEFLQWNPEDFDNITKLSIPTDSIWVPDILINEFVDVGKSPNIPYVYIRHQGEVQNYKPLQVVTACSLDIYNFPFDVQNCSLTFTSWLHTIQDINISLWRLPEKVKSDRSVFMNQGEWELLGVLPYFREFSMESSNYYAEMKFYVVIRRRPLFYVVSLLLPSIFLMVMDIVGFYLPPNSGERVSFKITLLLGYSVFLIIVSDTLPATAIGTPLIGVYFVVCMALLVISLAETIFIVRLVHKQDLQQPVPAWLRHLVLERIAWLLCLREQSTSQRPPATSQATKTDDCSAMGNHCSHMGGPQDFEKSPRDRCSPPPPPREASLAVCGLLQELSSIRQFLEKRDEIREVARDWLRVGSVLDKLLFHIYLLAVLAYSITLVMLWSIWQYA
Sequence of C5a anaphylatoxin chemotactic receptor 1 (Homo sapiens) (P21730 whole entry): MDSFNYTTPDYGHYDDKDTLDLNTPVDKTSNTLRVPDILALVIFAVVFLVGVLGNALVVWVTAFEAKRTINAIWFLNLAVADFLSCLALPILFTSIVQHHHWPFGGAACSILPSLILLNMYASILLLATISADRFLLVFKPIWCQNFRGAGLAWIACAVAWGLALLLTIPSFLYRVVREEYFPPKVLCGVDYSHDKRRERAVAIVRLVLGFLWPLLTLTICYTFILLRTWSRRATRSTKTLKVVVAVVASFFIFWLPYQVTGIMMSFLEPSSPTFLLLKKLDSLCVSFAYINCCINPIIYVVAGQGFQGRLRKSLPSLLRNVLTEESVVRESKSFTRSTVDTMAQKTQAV
Sequence of Leukotriene B4 receptor 1 (Homo sapiens) (Q15722 whole entry): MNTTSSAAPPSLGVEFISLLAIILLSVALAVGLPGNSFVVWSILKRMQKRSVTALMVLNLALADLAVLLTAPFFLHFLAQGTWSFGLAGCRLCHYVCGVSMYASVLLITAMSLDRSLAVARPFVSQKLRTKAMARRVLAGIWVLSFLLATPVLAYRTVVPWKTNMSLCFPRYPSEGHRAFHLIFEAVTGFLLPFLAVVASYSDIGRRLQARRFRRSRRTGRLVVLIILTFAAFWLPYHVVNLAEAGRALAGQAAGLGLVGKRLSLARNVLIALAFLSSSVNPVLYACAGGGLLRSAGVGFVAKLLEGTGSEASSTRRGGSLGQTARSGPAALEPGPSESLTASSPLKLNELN

CCc1cccc(CC)c1Cc1ncc[nH]1
inhibition [1]: 1%
inhibition [2]: 36%
inhibition [3]: -4%
inhibition [4]: 6%
inhibition [5]: -4%
inhibition [6]: 34%
Ki [7]: 24 nM
inhibition [8]: -3%
inhibition [9]: 4%
inhibition [10]: 17%
inhibition [11]: -1%
inhibition [12]: 2%
inhibition [13]: 8%
inhibition [14]: -2%
half-life [15]: 0.95 h
inhibition [16]: -6%
inhibition [17]: -4%
bioavailability [18]: 21%
Ki [19]: 1300 nM
inhibition [20]: 31%
Ki [21]: 660 nM
inhibition [22]: 1%
inhibition [23]: 5%
inhibition [24]: 7%
inhibition [25]: -7%
inhibition [26]: 22%
inhibition [27]: 10%
inhibition (Homo sapiens [28]): 7%
Ratio Ki (CHL): 100
inhibition [29]: 1%
inhibition [30]: 5%
inhibition [31]: 45%
inhibition [32]: -8%
inhibition [33]: 9%
inhibition [34]: -2%
half-life [35]: 4.9 h
inhibition (Homo sapiens [36]): 78%
inhibition [37]: 6%
inhibition [38]: 1%
inhibition [39]: 3%
inhibition [40]: 1%
